SMILES strings stand for the structures.

This test relates to HCV 1b-377-neo replicon cells. As to the kind of experiment: HCV replicon FRET assay. It is filed as cell-based. As to conditions: Hepatitis C virus; HCV replicon; read-out: Activity (EC50). For orientation: In antiviral work, replicon cells carry a viral genome segment that copies itself.
What is called EC50 is the concentration needed to bring the measured effect to its halfway point. As for `Cn1cccc1CC(=O)N1CCC[C@H]1C(=O)Nc1ccc(/C=C/c2ccc(NC(=O)[C@@H]3CCCN3C(=O)Cc3cccn3C)cc2)cc1` [Example 105], the EC50 fell in the range of 0.1 to 90 nM.
Turning to `CC(=O)N1CCC[C@H]1C(=O)Nc1ccc(/C=C/c2ccc(NC(=O)[C@@H]3CCCN3C(=O)c3ccccc3NCc3ccccc3)cc2)cc1` [Example 153], the EC50 was 1000 to 10000 nM.
Turning to `CCc1ccccc1C(=O)N1CCC[C@H]1C(=O)Nc1ccc(/C=C/c2ccc(NC(=O)[C@@H]3CCCN3C(=O)Cc3cccnc3)cc2)cc1` [Example 143], the EC50 lay within 100 to 1000 nM.
With `CC(C)C(=O)N1CCC[C@H]1C(=O)Nc1ccc(/C=C/c2ccc(NC(=O)[C@@H]3CCCN3C(=O)C(C)C)cc2)cc1` [Example 39], the EC50 was 100 to 1000 nM.
Turning to `CCN(CC)C(=O)N1CCC[C@H]1C(=O)Nc1ccc(/C=C/c2ccc(NC(=O)[C@@H]3CCCN3C(=O)N(CC)CC)cc2)cc1` [Example 289], the EC50 was in the range of 0.1 to 90 nM.
To `CC(C)(C)O[C@@H]1C[C@@H](C(=O)Nc2ccc(/C=C/c3ccc(NC(=O)[C@@H]4C[C@@H](OC(C)(C)C)CN4C(=O)OCc4ccccc4)cc3)cc2)N(C(=O)OCc2ccccc2)C1` [Example 294] belongs 100 to 1000 nM; to `CC(C)(C)CC(=O)N1CCC[C@H]1C(=O)Nc1ccc(/C=C/c2ccc(NC(=O)[C@@H]3CCCN3C(=O)CC(C)(C)C)cc2)cc1` [Example 48], 100 to 1000 nM.
Turning to `CN(C)[C@@H](C(=O)N1CCC[C@H]1C(=O)Nc1ccc(/C=C/c2ccc(NC(=O)[C@@H]3CCCN3C(=O)[C@@H](c3ccccc3)N(C)C)cc2)cc1)c1ccccc1` [Example 296], the concentration for a half-maximal effect (EC50) fell in the range of 0.1 to 90 nM.
In the case of `COc1cccc(C(=O)N2CCC[C@H]2C(=O)Nc2ccc(/C=C/c3ccc(NC(=O)[C@@H]4CCCN4C(=O)c4cccc(OC)c4)cc3)cc2)c1` [Example 32], the EC50 was 0.1 to 90 nM.
For the compound `O=C(Nc1ccc(/C=C/c2ccc(NC(=O)[C@@H]3CCCN3C(=O)c3ccccc3Oc3ccccc3)cc2)cc1)[C@@H]1CCCN1C(=O)c1ccccc1Oc1ccccc1` [Example 147], the EC50 lay within 100 to 1000 nM.
In the case of `CN(C)CC(=O)N1CCC[C@H]1C(=O)Nc1ccc(/C=C/c2ccc(NC(=O)[C@@H]3CCCN3C(=O)CN(C)C)cc2)cc1` [Example 28], the EC50 lay in the range of 100 to 1000 nM.
For `O=C(Nc1ccc(/C=C/c2ccc(NC(=O)[C@@H]3CCCN3S(=O)(=O)Cc3cccc(C(F)(F)F)c3)cc2)cc1)[C@@H]1CCCN1S(=O)(=O)Cc1cccc(C(F)(F)F)c1` [Example 283], the concentration for a half-maximal effect (EC50) lay in the range of 1000 to 10000 nM.
To `CCOc1ccccc1C(=O)N1CCC[C@H]1C(=O)Nc1ccc(/C=C/c2ccc(NC(=O)[C@@H]3CCCN3C(=O)c3ccccc3OCC)cc2)cc1` [Example 158] belongs 1000 to 10000 nM.
For `CC(C)(C)O[C@@H]1C[C@@H](C(=O)Nc2ccc(/C=C/c3ccc(NC(=O)[C@@H]4CCCN4C(=O)Cc4ccccc4)cc3)cc2)N(C(=O)OCc2ccccc2)C1` [Example 274] the value was 0.1 to 90 nM; for `CC(C)NC(=O)O[C@@H]1C[C@@H](C(=O)Nc2ccc(/C=C/c3ccc(NC(=O)[C@@H]4C[C@@H](O)CN4C(=O)OCc4ccccc4)cc3)cc2)N(C(=O)OCc2ccccc2)C1` [Example 246], 1000 to 10000 nM.
Take `NC(=O)C1(C(=O)N2CCC[C@H]2C(=O)Nc2ccc(/C=C/c3ccc(NC(=O)[C@@H]4CCCN4C(=O)C4(C(N)=O)CC4)cc3)cc2)CC1` [Example 62]: the EC50 lay within 100 to 1000 nM.
Take `CCOc1cccc(-c2cccnc2C(=O)N2CCC[C@H]2C(=O)Nc2ccc(/C=C/c3ccc(NC(=O)[C@@H]4CCCN4C(=O)c4ncccc4-c4cccc(OCC)c4)cc3)cc2)c1` [Example 231]: the EC50 lay within 1000 to 10000 nM.
Take `COc1cccc(CCC(=O)N2CCC[C@H]2C(=O)Nc2ccc(/C=C/c3ccc(NC(=O)[C@@H]4CCCN4C(=O)CCc4cccc(OC)c4)cc3)cc2)c1` [Example 33]: the EC50 lay within 100 to 1000 nM.
`Cc1ncccc1C(=O)N1CCC[C@H]1C(=O)Nc1ccc(/C=C/c2ccc(NC(=O)[C@@H]3CCCN3C(=O)c3cccnc3C)cc2)cc1` [Example 76]: the EC50 was 100 to 1000 nM.
For `CN(C)c1cc(C(=O)N2CCC[C@H]2C(=O)Nc2ccc(/C=C/c3ccc(NC(=O)[C@@H]4CCCN4C(=O)c4cc(N(C)C)c5ccccc5n4)cc3)cc2)nc2ccccc12` [Example 297], the concentration giving a half-maximal response (EC50) fell in the range of 0.1 to 90 nM.
Turning to `COC(=O)N1c2ccccc2C[C@H]1C(=O)N1CCC[C@H]1C(=O)Nc1ccc(/C=C/c2ccc(NC(=O)[C@@H]3CCCN3C(=O)[C@@H]3Cc4ccccc4N3C(=O)OC)cc2)cc1` [Example 189], the EC50 was in the range of 1000 to 10000 nM.
Regarding `Cn1cccc1C(=O)N1CCC[C@H]1C(=O)Nc1ccc(/C=C/c2ccc(NC(=O)[C@@H]3CCCN3C(=O)c3cccn3C)cc2)cc1` [Example 121], the EC50 fell in the range of 0.1 to 90 nM.
With `CC(C)c1sc(Cl)nc1C(=O)N1CCC[C@H]1C(=O)Nc1ccc(/C=C/c2ccc(NC(=O)[C@@H]3CCCN3C(=O)c3nc(Cl)sc3C(C)C)cc2)cc1` [Example 186], the EC50 fell in the range of 100 to 1000 nM.
Regarding `CCC(C)NC(=O)O[C@@H]1C[C@@H](C(=O)Nc2ccc(/C=C/c3ccc(NC(=O)[C@@H]4C[C@@H](O)CN4C(=O)OCc4ccccc4)cc3)cc2)N(C(=O)OCc2ccccc2)C1` (stereo partly shown) [Example 245], the concentration for a half-maximal effect (EC50) was 1000 to 10000 nM.
With `O=C(Nc1ccc(/C=C/c2ccc(NC(=O)[C@@H]3CCCN3C(=O)c3ccccc3-c3ccccc3)cc2)cc1)[C@@H]1CCCN1C(=O)c1ccccc1-c1ccccc1` [Example 166], the EC50 was in the range of 1000 to 10000 nM.
Regarding `O=C(Nc1ccc(/C=C/c2ccc(NC(=O)[C@@H]3CCCN3C(=O)c3ccccc3)cc2)cc1)[C@@H]1CCCN1C(=O)c1ccccc1` [Example 61], the half-maximal effective concentration (EC50) was 100 to 1000 nM.
In the case of `O=C(Nc1ccc(/C=C/c2ccc(NC(=O)[C@@H]3CCCN3C(=O)c3ccccc3NCc3ccccc3)cc2)cc1)[C@@H]1CCCN1C(=O)CC1CC1` [Example 152], the EC50 is 100 to 1000 nM.
To `O=C(Nc1ccc(/C=C/c2ccc(NC(=O)[C@@H]3CCCN3C(=O)c3ccccc3NCc3ccccc3)cc2)cc1)[C@@H]1CCCN1C(=O)c1ccccc1NCc1ccccc1` [Example 141] belongs 1000 to 10000 nM; to `O=C(Nc1ccc(/C=C/c2ccc(NC(=O)[C@@H]3CCCCN3C(=O)OCc3ccccc3)cc2)cc1)[C@@H]1CCCCN1C(=O)OCc1ccccc1` [Example 9], 0.1 to 90 nM.
As for `CC(=O)N[C@@H](C)C(=O)Nc1ccc(/C=C/c2ccc(NC(=O)[C@@H]3CCCN3C(=O)Cc3ccccc3)cc2)cc1` [Example 256], the EC50 lay in the range of 100 to 1000 nM.
With `CN(C)CC(=O)N1CCC[C@H]1C(=O)Nc1ccc(/C=C/c2ccc(NC(=O)[C@@H]3CCCN3C(=O)Cc3cccs3)cc2)cc1` [Example 101], the EC50 is 0.1 to 90 nM.
`CC(C)(C)OC(=O)N1CCC[C@H]1C(=O)Nc1ccc(/C=C/c2ccc(NC(=O)[C@@H]3CCCN3)cc2)cc1` [Example 22]: the EC50 fell in the range of 1000 to 10000 nM.
Regarding `O=C(Nc1ccc(/C=C/c2ccc(NC(=O)[C@@H]3CCCN3C(=O)c3nccn3Cc3ccccc3)cc2)cc1)[C@@H]1CCCN1C(=O)c1nccn1Cc1ccccc1` [Example 179], the EC50 fell in the range of 1000 to 10000 nM.
On to `[N-]=[N+]=Nc1ccc(C(=O)N2CCC[C@H]2C(=O)Nc2ccc(/C=C/c3ccc(NC(=O)[C@@H]4CCCN4C(=O)Cc4ccccc4)cc3)cc2)cc1` [Example 118], for which the EC50 lay within 0.1 to 90 nM.
Take `CC(=O)N1CCC[C@H]1C(=O)Nc1ccc(/C=C/c2ccc(NC(=O)[C@@H]3CCCN3C(=O)Cc3ccncc3)cc2)cc1` [Example 51]: the EC50 fell in the range of 100 to 1000 nM.
For `Nc1ccc(/C=C/c2ccc(NC(=O)[C@@H]3CCCN3C(=O)Cc3ccccc3)cc2)cc1` [Example 250A], the EC50 lay within 1000 to 10000 nM.
Turning to `CCc1cccc(CC)c1C(=O)N1CCC[C@H]1C(=O)Nc1ccc(/C=C/c2ccc(NC(=O)[C@@H]3CCCN3C(=O)c3c(CC)cccc3CC)cc2)cc1` [Example 205], the EC50 lay within 1000 to 10000 nM.
On to `O=C(Nc1ccc(/C=C/c2ccc(NC(=O)[C@@H]3CCCN3C(=O)[C@H]3CCCO3)cc2)cc1)C1CCC1` [Example 262], for which the concentration for a half-maximal effect (EC50) is 100 to 1000 nM.
To `Cc1cccnc1C(=O)N1CCC[C@H]1C(=O)Nc1ccc(/C=C/c2ccc(NC(=O)[C@@H]3CCCN3C(=O)c3ncccc3C)cc2)cc1` [Example 177] belongs 1000 to 10000 nM; to `O=C(Nc1ccc(/C=C/c2ccc(NC(=O)[C@@H]3CCCN3C(=O)c3cccnc3Sc3ccccc3)cc2)cc1)[C@@H]1CCCN1C(=O)c1cccnc1Sc1ccccc1` [Example 196], 1000 to 10000 nM; to `CN(Cc1ccccc1)c1ccccc1C(=O)N1CCC[C@H]1C(=O)Nc1ccc(/C=C/c2ccc(NC(=O)[C@@H]3CCCN3C(=O)c3ccccc3N(C)Cc3ccccc3)cc2)cc1` [Example 162], 1000 to 10000 nM.
To `Cc1cc(C)c(S(=O)(=O)N2CCC[C@H]2C(=O)Nc2ccc(/C=C/c3ccc(NC(=O)[C@@H]4CCCN4S(=O)(=O)c4c(C)cc(C)cc4C)cc3)cc2)c(C)c1` [Example 279] belongs 100 to 1000 nM.
For `Cc1cc(CC(=O)N2CCC[C@H]2C(=O)Nc2ccc(/C=C/c3ccc(NC(=O)[C@@H]4CCCN4C(=O)CN(C)C)cc3)cc2)on1` [Example 97] the value was 0.1 to 90 nM.

The values above are taken from patent US8143288B2, “Inhibitors of HCV replication” (priority 2005, dated 2012).
